Data published in article PMC8539310, “In Vitro Anti-HIV-1 Reverse Transcriptase and Integrase Properties of Punica granatum L. Leaves, Bark, and Peel Extracts and Their Main Compounds” (Plants, 2021).

How the values were obtained:
[1] = target: T1, HIV-1 RT-associated RNase H (Human immunodeficiency virus type 1 group M subtype B, UniProt P04585); test: RNase H polymerase independent cleavage assay; format: biochemical; conditions: for remaining activity at 100 µM: read-out: Percentage of control RNase H activity in the presence of the indicated drug concentration
T1 construct: HIV-1 group M subtype B heterodimeric RT; made in house
Description: HIV-1 group M subtype B heterodimeric RT was expressed and purified essentially as previously described.
HIV RT-associated RNase H activity was measured as described by Corona et al. 2016 [68] using the RNase H inhibitor RDS1759 as a control. Data analysis of the assay results was performed using GraphPad Prism 9.

[2] = test system: HIV-1 infection in Jurkat cells; parameters: method as in PMID 22140483; conditions: cited from earlier work
[3] = target: T2, HIV-1 IN in the presence of LEDGF/p75 (Human immunodeficiency virus type 1 group M subtype B, UniProt P04585); test: HTRF IN LEDGF-dependent assay; format: biochemical; conditions: for IC50: pure compounds, in the presence of LEDGF, read-out: HIV-1 Integrase LEDGF-Dependent IC50; for Inhibition of HIV-1 IN LEDGF-dependent activity (in words): highest tested concentration; for remaining activity at 100 µM: read-out: Percentage of control IN LEDGF-dependent activity in the presence of the indicated drug concentration
T2 construct: Recombinant IN and LEDGF/p75 proteins were expressed and purified; made in house
Description: Recombinant IN and LEDGF/p75 proteins were expressed and purified as described by Esposito et al. 2020 [67].
The IN activity was measured in the presence of LEDGF/p75 cellular cofactor in an HTRF assay. Data analysis of the assay results was performed using GraphPad Prism 9.

[4] = test system: HIV-1 RT, wild-type and mutant; parameters: method as in PMID 23821410; conditions: wild-type and mutant RTs; cited from earlier work
HIV-1 protease = conditions: cited from earlier work
X4-tropic HIV-1 = test system: X4-tropic HIV-1; parameters: method as in PMID 29480632; conditions: target cells; cited from earlier work
target cells = conditions: cited from earlier work
[5] = test system: HIV RT DNA polymerase activity; parameters: method as in Nutan et al. 2013 51; conditions: ref Nutan et al. 2013 51; cited from earlier work
H9 lymphocytes = test system: H9 lymphocytes; parameters: method as in PMID 1698933; conditions: cited from earlier work
HIV-1 in H9 lymphocytes = test system: HIV-1 in H9 lymphocytes; parameters: method as in PMID 1698933; conditions: infected H9 lymphocytes; cited from earlier work

| SMILES | IC50 ([1]; pure compounds) [µM] | IC50 [3] [µM] | Inhibition of HIV-1 IN LEDGF-dependent activity (in words) [3] | remaining activity at 100 µM [3] [%] | other results |
| --- | --- | --- | --- | --- | --- |
| O=c1cc(-c2ccc(O)c(O)c2)oc2cc(O)cc(O)c12 [Luteolin] | 3.7 ± 0.5 | 6.5 ± 0.5 |  |  | Inhibition of HIV-1 infection [2]: capable of inhibiting |
| C=C(C)[C@@H]1CC[C@]2(C(=O)O)CC[C@]3(C)[C@H](CC[C@@H]4[C@@]5(C)CC[C@H](O)C(C)(C)[C@@H]5CC[C@]43C)[C@@H]12 [Betulinic acid] | 2 ± 0.2 | 96.5 ± 3.5 | weakly active |  | Inhibition of HIV-1 RT-associated functions [4]: inhibited |
| C[C@H]1[C@H](C)CC[C@]2(C(=O)O)CC[C@]3(C)C(=CC[C@@H]4[C@@]5(C)CC[C@H](O)C(C)(C)[C@@H]5CC[C@]43C)[C@H]12 [Ursolic acid] | 5.7 ± 0.1 | > 100 | inactive | 68 | Inhibition of protease expression (HIV-1 protease): inhibit |
| O=c1oc2c(O)c(O)cc3c(=O)oc4c(O)c(O)cc1c4c23 [Ellagic acid] | 1.4 ± 0.11 | 0.075 ± 0.0005 |  |  | Inhibition of HIV-1 protease expression (HIV-1 protease): ability to inhibit; Suppression of replication of X4-tropic HIV-1 (X4-tropic HIV-1): able to suppress; Cytotoxicity (target cells): without cytotoxicity; Inhibition of HIV RT (DNA polymerase activity) [5]: inability |
| O=c1cc(-c2ccc(O)cc2)oc2cc(O)cc(O)c12 [Apigenin] | 16.1 ± 0.6 | 22 ± 3.5 |  |  |  |
| O=c1cc(-c2ccc(O[C@@H]3O[C@H](CO)[C@@H](O)[C@H](O)[C@H]3O)c(O)c2)oc2cc(O)cc(O)c12 [Luteolin 4′-O-glucoside] | > 100 | > 100 | totally inactive | 100 | remaining activity at 100 µM [1]: 100% |
| O=c1cc(-c2ccc(O)cc2)oc2cc(O[C@@H]3O[C@H](CO)[C@@H](O)[C@H](O)[C@H]3O)cc(O)c12 [Apigenin 7-O-glucoside] | > 100 | > 100 | totally inactive | 100 | remaining activity at 100 µM [1]: 100% |
| CC1(C)CC[C@]2(C(=O)O)CC[C@]3(C)C(=CC[C@@H]4[C@@]5(C)CC[C@H](O)C(C)(C)[C@@H]5CC[C@]43C)[C@@H]2C1 [Oleanolic acid] | 6.7 ± 0.4 | > 100 | inactive | 74 | Inhibition of protease expression (HIV-1 protease): inhibit |
| CCOC(=O)C(=O)CC(=O)/C=C/c1cccn1Cc1ccccc1Cl [RDS1759, reference compound] |  |  |  |  | HIV-1 RT-Associated RNase H IC50 ([1]; reference compound of Table 1, footnote c: expressed in µM): 10.7 ± 0.9^c µM |
| O=C1OC2C(O)OC3COC(=O)c4cc(O)c(O)c(O)c4-c4c(O)c(O)c5oc(=O)c6c(c(O)c(O)c7oc(=O)c4c5c76)-c4c(cc(O)c(O)c4O)C(=O)OC3C2OC(=O)c2cc(O)c(O)c(O)c2-c2c1cc(O)c(O)c2O (stereo not drawn) [Punicalagins, Punicalagin α + β] |  | 0.065 |  |  | HIV-1 RT-Associated RNase H IC50 ([1]; pure compounds): 0.12 ± 0.00 µM; Cytotoxicity (H9 lymphocytes): low degree of cytotoxicity; Inhibition of HIV-1 replication (HIV-1 in H9 lymphocytes): inhibited |
